US20240148676A1, “COMBINATION THERAPY WITH PD-1 SIGNAL INHIBITOR” (Kyoto University, priority 2021, published 2024)

Experiments:
LLC cells = assay: LLC tumor growth in WT mice, anti-PD-L1 antibody and/or CD45 inhibitor; format: in vivo, mouse; settings: young WT mice; for tumor growth: CD45 inhibitor (3 mg/kg i.p., from day 7, three times) in combination with anti-PD-L1 antibody (2 mg/kg, days 7, 13, 19), LLC 2×10^6; for inhibitory effect against LLC tumor growth: CD45 inhibitor alone
Protocol: (§1) CD45 inhibition (FIG. 12): 2-(4-acetylanilino)-3-chloronaphthoquinone (211) (530197, EDM Millipore) (12) (3 mg/kg) or N-(9,10-dioxo-9,10-dihydrophenanthren-2-yl)-2,2-dimethylpropionamide (PTP) (540215, Sigma-Aldrich) (13) (3 mg/kg) was administered intraperitoneally to mice before tumor cell inoculation or 5 or 7 days after tumor cell inoculation. MC38 cells (5×10^5 or 1×10^6) or LLC cells (2×10^6) were intradermally inoculated into the right flank of mice (day 0). Seven days after LLC cell inoculation (day 7), mice received intraperitoneal administration of anti-PD-L1 antibody (clone 1-111A.4) (2 mg/kg). Administration of this anti-PD-L1 antibody was repeated 3 times at an interval of 6 days (on days 7, 13, and 19). Tumor size was measured with calipers, and tumor volume was calculated using the following formula: π (length×breadth×height)/6.
LLC cells (2×10^6 cells/tumor) were i.d. inoculated into the right flank of young (1 to 2-month old) WT mice (FIG. 16A). After 7 days, therapy was started using anti-PD-L1 antibody alone or in combination with CD45 inhibitor (211 or PTP) to examine tumor growth (FIG. 16A). […] Further, a therapeutic effect of using CD45 inhibitor alone was examined under similar conditions.

[1] = tested on: MC38 murine colon adenocarcinoma cells; assay: MC38 tumor growth in PD-1 KO mice given CD45 inhibitor; format: in vivo, mouse; settings: for tumor volume: PD-1 KO mice (2-month old), vs vehicle
Protocol: as §1
CD45 inhibitor (211) was administered intraperitoneally at 3 mg/kg to PD-1 KO mice (2-month old) once 3 days before inoculation of MC38 murine colon adenocarcinoma cells (preadministration) or 3 times 5 days after inoculation of MC38 cells (postadministration) (FIG. 13A and B). MC38 cells were intradermally inoculated into the right flank of miceat 1×10^6 cells/tumor.
CD45 inhibitor (211) was administered intraperitoneally at 3 mg/kg to young (1 to 2-month old) or aged (14 to 16-month old) PD-1 KO mice […]. Three days after administration of 211, MC38 cells were intradermally inoculated into the right flank of mice at 5×10^5 cells/tumor, followed by monitoring tumor growth.

## CC(=O)c1ccc(NC2=C(Cl)C(=O)c3ccccc3C2=O)cc1 [compound 211, 2-(4-acetylanilino)-3-chloronaphthoquinone]
LLC cells
  tumor growth: significantly inhibited
  inhibitory effect against LLC tumor growth: significant inhibitory effect was not shown
[1]; aged (14 to 16-month old) PD-1 KO mice, 3 mg/kg i.p. 3 days before MC38 (5×10^5) inoculation
  tumor growth: strongly inhibited
[1]; postadministration: 3 mg/kg i.p. 3 times from day 5 after MC38 (1×10^6) inoculation
  tumor volume: significantly reduced
[1]; preadministration: 3 mg/kg i.p. once 3 days before MC38 (1×10^6) inoculation
  tumor volume: significantly reduced

## CC(C)(C)C(=O)Nc1ccc2c(c1)C(=O)C(=O)c1ccccc1-2 [PTP, N-(9,10-dioxo-9,10-dihydrophenanthren-2-yl)-2,2-dimethylpropionamide]
LLC cells
  tumor growth: significantly inhibited
  inhibitory effect against LLC tumor growth: significant inhibitory effect was not shown
